This is an account of results in PubChem BioAssay (NCI).

Values joined by “and” are separate entries in the source; they are usually repeats but may differ in a detail not shown here. Equal entries are not always repeated.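 Growth conditions: 96-well plates. Treatment: test compound, 48 hours, 5 concentrations. Analysis: linear interpolation between bracketing concentrations; unreached endpoints set to highest concentration. GI50 is the concentration that inhibits growth by half. The concentration for full growth arrest is given as TGI.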

Among the test systems are CCRF-CEM leukemia; UO-31 renal; M14 melanoma; MDA-MB-435; U251 CNS; TK-10 renal; MALME-3M melanoma; BT-549 breast; NCI-H522 lung; UACC-257 melanoma.
Common to all, as to assay: growth of human tumour cells (NCI), 48 h

For `CC(=O)OCc1ccc(O)c(C=O)c1`, the TGI with CCRF-CEM leukemia, with UO-31 renal, in the assay on M14 melanoma, in the assay with MDA-MB-435, with U251 CNS and in the assay on TK-10 renal was more than 100 µM throughout. Moreover, the TGI in the assay with MALME-3M melanoma, in the assay with BT-549 breast, with NCI-H522 lung and with UACC-257 melanoma was more than 100 µM each time.

Consider `CC(=O)OC1CC[C@@]2(C)C(CC[C@]3(C)C2CC=C2[C@@H]4CC(C)(C)CCC4(C)CCC23C)[C@@]1(C)C(=O)O` (stereo partly drawn), for which the TGI in the assay with CCRF-CEM leukemia was more than 87.9 µM; in the assay with UO-31 renal, 35.9 µM; in the assay with M14 melanoma it was 46.5 µM; with MDA-MB-435 it was 44.1 µM; with U251 CNS, 32 µM; in the assay on TK-10 renal it was 51.8 µM. Further, the TGI in the assay with MALME-3M melanoma turned out to be 47.1 µM; with BT-549 breast it was 50.1 µM; in the assay with NCI-H522 lung, 22.6 µM; in the assay on UACC-257 melanoma it was 43.3 µM.

Regarding `NC(=S)N/N=C/c1ccc(O)cn1`, the GI50 in the assay on CCRF-CEM leukemia was 4.59 µM and 2.42 µM; in the assay with UO-31 renal, 25.5 µM and 7.24 µM; in the assay with M14 melanoma it was 16.3 µM; in the assay with U251 CNS it was 9.35 µM and 6.93 µM; with MALME-3M melanoma, 31 µM and 13.4 µM; with NCI-H522 lung it was 10.2 µM and 1.41 µM and 7 µM. Moreover, the GI50 with UACC-257 melanoma was 25.6 µM and 34 µM. The TGI is 37.4 µM and 12 µM and 60.8 µM with CCRF-CEM leukemia; 66.7 µM and 42 µM and 136 µM in the assay on UO-31 renal; 35.6 µM and 25.6 µM in the assay with M14 melanoma; more than 1130 µM in the assay with MDA-MB-435; 391 µM and 602 µM with U251 CNS; more than 1390 µM in the assay on TK-10 renal. Moreover, the TGI in the assay on MALME-3M melanoma is 113 µM and 138 µM; in the assay on BT-549 breast, more than 670 µM; with UACC-257 melanoma it was 74.2 µM and 112 µM and 149 µM.

In the case of `CSc1n(Cc2ccc3ccccc3c2)c(C)c[n+]1Cc1ccc2ccccc2c1`, the GI50 is 0.571 µM with CCRF-CEM leukemia; 1.6 µM with UO-31 renal; 0.608 µM with M14 melanoma; 0.436 µM with MDA-MB-435; 0.422 µM in the assay with U251 CNS; 1.41 µM in the assay with TK-10 renal. The GI50 in the assay with MALME-3M melanoma is 0.472 µM; in the assay on BT-549 breast it was 0.569 µM; in the assay with NCI-H522 lung it was 0.311 µM; with UACC-257 melanoma it was 0.325 µM. Also, the TGI in the assay with CCRF-CEM leukemia is 2.31 µM; in the assay with UO-31 renal it was 3.84 µM; with M14 melanoma, 2.08 µM; with MDA-MB-435 it was 1.57 µM; in the assay with U251 CNS, 1.65 µM; in the assay with TK-10 renal, 2.88 µM. The TGI with MALME-3M melanoma was found to be 1.73 µM; with BT-549 breast, 1.81 µM; in the assay on NCI-H522 lung, 1.3 µM; in the assay on UACC-257 melanoma, 1.12 µM.

As for `CCCCOC(=O)c1ccc(NC(=O)CCl)cc1`, the GI50 with CCRF-CEM leukemia is 0.789 µM; in the assay on UO-31 renal it was 1.39 µM; in the assay on M14 melanoma, 3.07 µM; in the assay on MDA-MB-435, 3.5 µM; with U251 CNS, 1.71 µM; in the assay on TK-10 renal it was 1.91 µM. Also, the GI50 in the assay with MALME-3M melanoma is 1.76 µM; in the assay on BT-549 breast, 2.2 µM; in the assay with NCI-H522 lung, 1.74 µM; in the assay with UACC-257 melanoma, 3.05 µM. In addition, the TGI was 6.07 µM in the assay with CCRF-CEM leukemia; 2.84 µM in the assay with UO-31 renal; 12.7 µM in the assay with M14 melanoma; 14.3 µM with MDA-MB-435; 3.1 µM in the assay on U251 CNS; 3.85 µM in the assay with TK-10 renal. For the same compound, the TGI with MALME-3M melanoma worked out at 3.68 µM; with BT-549 breast, 7.7 µM; with NCI-H522 lung it was 3.57 µM; in the assay with UACC-257 melanoma, 8.66 µM.

`COc1cc2c(cc1OC)-c1ccc3cc4c(cc3c1N(CCN(C)C)C2)OCO4`: the GI50 with CCRF-CEM leukemia is 0.148 µM; in the assay with UO-31 renal, 1.77 µM; with M14 melanoma, 0.43 µM; with U251 CNS it was 0.215 µM; in the assay with TK-10 renal, 2.03 µM; in the assay with MALME-3M melanoma it was 1.15 µM. In addition, the results for the GI50 in the assay on BT-549 breast, in the assay on NCI-H522 lung and with UACC-257 melanoma were 1.15 µM, 0.188 µM and 2.43 µM, respectively. The TGI with CCRF-CEM leukemia was found to be 3.73 µM; in the assay on UO-31 renal, 5.77 µM; in the assay on M14 melanoma, 4.85 µM; in the assay with MDA-MB-435, 17.6 µM; with U251 CNS it was 1.23 µM; in the assay on TK-10 renal it was 7.39 µM. Besides, the TGI with MALME-3M melanoma came to 9.45 µM; with BT-549 breast it was 11.9 µM; in the assay on NCI-H522 lung, 1.56 µM; with UACC-257 melanoma, 16.5 µM.

Take `OC(C1CO1)C(O)C1CO1` (stereo not drawn): the GI50 is 1.53 µM in the assay with CCRF-CEM leukemia; 37 µM in the assay on UO-31 renal; 28.7 µM with M14 melanoma; 46.1 µM in the assay on MDA-MB-435; 7.78 µM in the assay with U251 CNS; 182 µM in the assay with TK-10 renal. For the same compound, the GI50 with BT-549 breast was 29.5 µM; in the assay on NCI-H522 lung it was 11.3 µM; with UACC-257 melanoma it was 56.1 µM. Besides, the TGI was 120 µM and 392 µM in the assay on CCRF-CEM leukemia; 112 µM and 199 µM in the assay with UO-31 renal; 94.6 µM and 165 µM in the assay on M14 melanoma; 150 µM and 246 µM in the assay on MDA-MB-435; 114 µM and 168 µM in the assay with U251 CNS; 150 µM and 404 µM in the assay with TK-10 renal. Moreover, the TGI in the assay on MALME-3M melanoma was 125 µM and 263 µM; with BT-549 breast, 84.7 µM and 299 µM; in the assay with NCI-H522 lung, 94.8 µM and 175 µM; with UACC-257 melanoma it was 141 µM and 244 µM.

Turning to `CN[C@@H]1C[C@H]2O[C@@](C)([C@@H]1OC)n1c3ccccc3c3c4c(c5c6ccccc6n2c5c31)C(=O)N[C@H]4O`, the GI50 with CCRF-CEM leukemia was 0.0307 µM; with UO-31 renal, 0.0116 µM; in the assay on MDA-MB-435, 0.0613 µM; in the assay on U251 CNS it was 0.0676 µM; with TK-10 renal it was 0.0096 µM; in the assay on MALME-3M melanoma, 0.0217 µM. Moreover, the GI50 in the assay with BT-549 breast is 0.0683 µM; in the assay on NCI-H522 lung, 0.103 µM; in the assay with UACC-257 melanoma, 0.0794 µM. Also, the TGI in the assay with CCRF-CEM leukemia was more than 10 µM; in the assay on UO-31 renal it was 0.0547 µM; in the assay on M14 melanoma it was more than 3.69 µM; in the assay on MDA-MB-435, 2.56 µM; in the assay on U251 CNS it was 0.651 µM; in the assay with TK-10 renal, 0.0541 µM. For the same compound, the TGI turned out to be 0.486 µM in the assay with MALME-3M melanoma, 0.617 µM with BT-549 breast, 0.878 µM with NCI-H522 lung and 2.57 µM in the assay with UACC-257 melanoma.

Take `Cc1ccc(C(=O)/C(=C\c2ccc([N+](=O)[O-])cc2)S(=O)Cc2ccc(F)cc2)cc1` (stereo not drawn): the GI50 was 0.752 µM with CCRF-CEM leukemia; 1.36 µM in the assay on UO-31 renal; 1.44 µM in the assay with M14 melanoma; 1.76 µM in the assay with MDA-MB-435; 1.66 µM in the assay on U251 CNS; 1.72 µM with TK-10 renal. For the same compound, the GI50 was 1.57 µM in the assay with MALME-3M melanoma, 1.52 µM in the assay on BT-549 breast, 1.55 µM in the assay with NCI-H522 lung and 1.93 µM in the assay with UACC-257 melanoma. Also, the TGI was more than 100 µM in the assay on CCRF-CEM leukemia; 2.69 µM with UO-31 renal; 2.89 µM with M14 melanoma; 3.65 µM in the assay with MDA-MB-435; 3.22 µM in the assay with U251 CNS; 3.28 µM in the assay on TK-10 renal. The TGI is 3.33 µM with MALME-3M melanoma, 2.88 µM with BT-549 breast, 3.01 µM in the assay with NCI-H522 lung and 3.69 µM in the assay with UACC-257 melanoma.
